According to publication PMC7400623, “Effect of lysine side chain length on histone lysine acetyltransferase catalysis” (Scientific Reports, 2020):

How the values were obtained:
PCAF (KAT2B) = biological target: T1, PCAF (KAT2B) (Homo sapiens, UniProt Q92831); experiment: MALDI-TOF MS enzymatic assay of PCAF-catalyzed acetylation of histone peptides; assay type: biochemical; conditions: 100 µM peptide, 300 µM AcCoA, pH 8.0, 37 °C; for acetylation (conversion to acetylated peptide) by PCAF: after 3 h, 2 µM PCAF, 50 mM Hepes, 0.1 mM EDTA, 1 mM DTT
T1 construct: Human PCAF catalytic domain (residues 498–658 in pET16b vector); SNAP-tag; His-tag; made in house; host or cells: E. coli BL21(DE3)
T1 sequence (Q92831 498-658): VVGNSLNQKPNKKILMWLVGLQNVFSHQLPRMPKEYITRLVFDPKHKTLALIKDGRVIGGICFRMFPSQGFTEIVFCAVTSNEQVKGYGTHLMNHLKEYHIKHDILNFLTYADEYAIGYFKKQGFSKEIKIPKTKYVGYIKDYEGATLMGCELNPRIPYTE
Method: (§1) MALDI-TOF MS enzymatic assays were carried out to investigate KAT-catalyzed acetylation of synthetic histone peptides. The enzymatic activity of the recombinantly expressed human KATs was measured at different time points (2 µM KAT enzyme, 100 µM histone peptide, 300 µM AcCoA, buffer: 50 mM Hepes, 0.1 mM EDTA, 1 mM DTT, pH = 8.0, 37 °C, hereafter used as standard conditions) (Fig. 3b,c). […] As further control, H4 and H3 peptides containing stereochemically inverted D-lysine were synthesized.
(§2) The KAT enzymatic activity towards histone peptides was measured at different time points under standard conditions (2 µM KAT enzyme, 100 µM peptide, 300 µM AcCoA) in the reaction buffer (50 mM HEPES, 0.1 mM EDTA, 1 mM DTT, pH = 8.0). The reactions were carried out in a final volume of 50 µL and shaken up in a Thermomixer C at 750 rpm, at 37 °C. The reactions were quenched by the addition of TFA 10% in MilliQ water at different time points. All reactions were aliquoted and mixed 1:2 with a solution of α-Cyano-4-hydroxycinnamic acid (CHCCA) in 1:1 MQ and ACN (0.1% TFA) and loaded onto an MTP 384 polished steel target to be analyzed by a UltrafleXtreme-II tandem mass spectrometer (Bruker, Billerica, MA, USA).

GCN5 (KAT2A) = biological target: T2, GCN5 (KAT2A) (Homo sapiens, UniProt Q92830); experiment: MALDI-TOF MS enzymatic assay of GCN5-catalyzed acetylation of histone peptides; assay type: biochemical; conditions: 300 µM AcCoA, pH 8.0, 37 °C; for acetylation (conversion to acetylated peptide) by GCN5: after 3 h, 2 µM GCN5, 100 µM peptide, 50 mM Hepes, 0.1 mM EDTA, 1 mM DTT
T2 construct: Human GCN5 catalytic domain (residues 497–662 in pET28a-LIC vector); His-tag; host or cells: E. coli BL21(DE3)
T2 sequence (Q92830 497-662): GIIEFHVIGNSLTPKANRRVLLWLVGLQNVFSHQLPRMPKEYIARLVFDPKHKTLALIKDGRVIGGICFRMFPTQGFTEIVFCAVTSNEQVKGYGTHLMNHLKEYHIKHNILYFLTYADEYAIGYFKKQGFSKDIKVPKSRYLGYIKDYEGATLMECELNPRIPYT
Method: as §1, §2

[1] = biological target: Human GCN5 catalytic domain (residues 497-662) (human) (UniProt Q92830)
Chain of Human GCN5 catalytic domain (residues 497-662) (human) (Q92830 497-662): as above

[2] = biological target: Human PCAF catalytic domain (residues 498-658) (human) (UniProt Q92831)
Chain of Human PCAF catalytic domain (residues 498-658) (human) (Q92831 498-658): as the sequence (Q92831 498-658) above

GCN5 catalytic domain = biological target: T3, GCN5 catalytic domain (Homo sapiens, UniProt Q92830); experiment: MALDI-TOF MS kinetics assay, GCN5; assay type: biochemical; conditions: for kcat^app/Km^app / decrease (drop) of kcat/Km for GCN5 compared to the natural lysine peptide: GCN5; for kcat^app/Km^app: same kinetics conditions; for kcat^app / Km: GCN5 catalytic domain 50 nM (2 µM for unnatural analogs), peptide 1,050–0 µM, pH 7.4, 37 °C, MALDI-TOF MS, duplicates, value ± SD, SD; for kcat^app: AcCoA 100 µM (saturating), 50 mM HEPES, 0.1 mM EDTA, 0.01% TRITON-X; for Km: AcCoA 100 µM, read-out: Km^app; for decrease (drop) of kcat/Km for GCN5 compared to the natural lysine peptide: K14 series vs H3K14, K9 series vs H3K9
T3 construct: Human GCN5 catalytic domain (residues 497–662 in pET28a-LIC vector); His-tag; host or cells: E. coli BL21(DE3)
T3 sequence (Q92830 497-662): as the sequence (Q92830 497-662) above
Excerpt: (§3) Kinetic analysis of bi-substrate enzymes, such as KATs, is reckoned to be challenging and dependent on many factors. Firstly, given the nature of these enzymes, the binding of one of the two substrates directly influences the binding of the other (with a direct effect on the Michaelis–Menten parameter Km). […] Therefore, to obtain data that would allow us to directly compare the catalytic properties of the selected KATs towards our selection of histone peptides bearing lysine analogs with longer side chains, two strategies to standardize our kinetic evaluation were taken: i) all the experiments were carried out with the same saturating concentrations of AcCoA and ii) only KATs catalytic domains were employed in the study.
(§4) Histone peptides kinetics evaluation was carried out with a MALDI-TOF MS assay under steady-state conditions[57],[58]. Histone peptides (1,050–0 µM) were incubated with AcCoA (100 µM) and the reactions were started by the addition of the enzyme (MOF 570 nM, PCAF and GCN5 50 nM) in a final volume of 20 µL in kinetic buffer (50 mM HEPES, 0.1 mM EDTA, 0.01% TRITON-X, pH = 7.4). […] AcCoA stock solutions in milli-Q water were calibrated with a NanoDrop 2000 spectrophotometer (Thermo Scientific, Waltham, MA, USA), employing the characteristic molar extinction coefficient ε260nm = 16,400 M^−1 cm^−1. Reactions were incubated at 37 °C, shaken at 750 rpm and quenched with TFA 10% in milli-Q water at different time points, within linear production of acetylated peptides extrapolated from time-course plots. All reactions were aliquoted and mixed 1:2 with a solution of α-cyano-4-hydroxycinnamic acid (CHCCA) in 1:1 MQ and ACN (0.1% TFA) and loaded onto MTP 384 polished steel target to be analyzed by UltrafleXtreme-II tandem mass spectrometer (Bruker). The amount of acetylated peptide was calculated by integration of the product peak area and divided it by the amount of unacetylated peptide, taking in account all the ionic species, at any concentration points using the FlexAnalysis software. Kinetic values were extrapolated by fitting V0 values (µM of produced peptide per minutes) and histone peptide concentrations to the Michaelis–Menten equation using the GraphPad Prism 5 software. Kinetic experiments were carried out in duplicates and final values are reported as value ± SD.

PCAF catalytic domain = biological target: T4, PCAF catalytic domain (Homo sapiens, UniProt Q92831); experiment: MALDI-TOF MS kinetics assay, PCAF; assay type: biochemical; conditions: for kcat^app / Km: PCAF catalytic domain 50 nM (2 µM for unnatural analogs), peptide 1,050–0 µM, pH 7.4, 37 °C, MALDI-TOF MS, duplicates, value ± SD, SD; for kcat^app: AcCoA 100 µM (saturating), 50 mM HEPES, 0.1 mM EDTA, 0.01% TRITON-X; for Km: AcCoA 100 µM, read-out: Km^app; for kcat^app/Km^app / decrease (drop) of kcat/Km for PCAF compared to the natural lysine peptide: PCAF; for kcat^app/Km^app: same kinetics conditions; for decrease (drop) of kcat/Km for PCAF compared to the natural lysine peptide: K14 series vs H3K14, K9 series vs H3K9
T4 construct: Human PCAF catalytic domain (residues 498–658 in pET16b vector); SNAP-tag; His-tag; made in house; host or cells: E. coli BL21(DE3)
T4 sequence (Q92831 498-658): as the sequence (Q92831 498-658) above
Excerpt: as §3, §4

In the case of “ARTKQTAR h3K9STGGK Ac A [H3h3K9, 15-mer histone H3 peptide (K14ac) with h3K at position 9]”, the “substrate for PCAF-catalyzed acetylation (in words)” value (PCAF (KAT2B); standard conditions: 2 µM PCAF, 3 h, MALDI-TOF MS) is reported as “No acetylation was observed within limits of detection” and the “substrate for GCN5-catalyzed acetylation (in words)” value (GCN5 (KAT2A); standard conditions: 2 µM GCN5, 100 µM peptide, 3 h, MALDI-TOF MS) is reported as “No acetylation was observed within limits of detection”.

“H3K14 histone peptide (H3 residues 3-17, K9 acetylated)” gave a Km^app of GCN5-catalyzed acetylation (MALDI-TOF MS kinetics, steady state, saturating AcCoA, 37 °C, pH 7.4) [1] of 995 μM and a Km^app of PCAF-catalyzed acetylation (MALDI-TOF MS kinetics, steady state, saturating AcCoA, 37 °C, pH 7.4) [2] of 727 μM.

“H3h2K14 histone peptide (H3 residues 3-17, K9 acetylated, h2K at position 14)” showed a Km^app of GCN5-catalyzed acetylation (MALDI-TOF MS kinetics, steady state, saturating AcCoA, 37 °C, pH 7.4) [1] of 1050 μM and a Km^app of PCAF-catalyzed acetylation (MALDI-TOF MS kinetics, steady state, saturating AcCoA, 37 °C, pH 7.4) [2] of 606 μM.

Work on “H3hK14 histone peptide (H3 residues 3-17, K9 acetylated, hLys at position 14)” yielded a Km^app of GCN5-catalyzed acetylation (MALDI-TOF MS kinetics, steady state, saturating AcCoA, 37 °C, pH 7.4) [1] of 878 μM and a Km^app of PCAF-catalyzed acetylation (MALDI-TOF MS kinetics, steady state, saturating AcCoA, 37 °C, pH 7.4) [2] of 488 μM.

For “TKQTARK Ac STGG K14 APR [H3K14, 15-mer H3 peptide, residues 3–17, synthetically acetylated K9, reference compound]”, the “time to quantitative acetylation by PCAF” value (PCAF (KAT2B); standard conditions: 2 µM PCAF) was 15 min, the “kcat^app/Km^app” value (GCN5 catalytic domain) was 5930 M⁻¹ s⁻¹ and the “kcat^app” value (GCN5 catalytic domain) was 5.9 ± 0.035 s⁻¹. The Km (GCN5 catalytic domain) was 995 ± 198 µM, the “time to quantitative acetylation by GCN5” value (GCN5 (KAT2A); standard conditions: 2 µM GCN5, 100 µM peptide) was 15 min and the “kcat^app” value (PCAF catalytic domain) was 6.07 ± 0.02 s⁻¹. The Km (PCAF catalytic domain) was 727 ± 95 µM and the “kcat^app/Km^app” value (PCAF catalytic domain) was 8330 M⁻¹ s⁻¹.

With “TKQTARK Ac STGG h2K 14 APR [H3h2K14, 15-mer histone H3 peptide (K9ac) with h2K at position 14]” the “acetylation (conversion to acetylated peptide) by PCAF” value (PCAF (KAT2B); MALDI-TOF MS) was 55%, the “decrease (drop) of kcat/Km for GCN5 compared to the natural lysine peptide” value (GCN5 catalytic domain) was 890 fold and the “kcat^app/Km^app” value (GCN5 catalytic domain) was 6.7 M⁻¹ s⁻¹. The “kcat^app” value (GCN5 catalytic domain) was 0.00667 ± 0.0017 s⁻¹, the Km (GCN5 catalytic domain) was 1050 µM and the “acetylation (conversion to acetylated peptide) by GCN5” value (GCN5 (KAT2A); MALDI-TOF MS) was 25%. For the same substance, the “kcat^app” value (PCAF catalytic domain) was 0.0083 ± 0.0017 s⁻¹, the Km (PCAF catalytic domain) was 606 ± 96 µM and the “decrease (drop) of kcat/Km for PCAF compared to the natural lysine peptide” value (PCAF catalytic domain) was 625 fold. For the same substance, the “kcat^app/Km^app” value (PCAF catalytic domain) was 13 M⁻¹ s⁻¹.

With “TKQTARK Ac STGG hK 14 APR [H3hK14, 15-mer histone H3 peptide (K9ac) with hLys at position 14]” the “acetylation (conversion to acetylated peptide) by PCAF” value (PCAF (KAT2B); MALDI-TOF MS) was 83%, the “decrease (drop) of kcat/Km for GCN5 compared to the natural lysine peptide” value (GCN5 catalytic domain) was 354 fold and the “kcat^app/Km^app” value (GCN5 catalytic domain) was 16.7 M⁻¹ s⁻¹. The “kcat^app” value (GCN5 catalytic domain) was 0.0145 ± 0.0017 s⁻¹, the Km (GCN5 catalytic domain) was 878 ± 157 µM and the “acetylation (conversion to acetylated peptide) by GCN5” value (GCN5 (KAT2A); MALDI-TOF MS) was 62%. For the same substance, the “kcat^app” value (PCAF catalytic domain) was 0.0155 ± 0.0033 s⁻¹, the Km (PCAF catalytic domain) was 488 ± 98 µM and the “decrease (drop) of kcat/Km for PCAF compared to the natural lysine peptide” value (PCAF catalytic domain) was 263 fold. The “kcat^app/Km^app” value (PCAF catalytic domain) was 31.7 M⁻¹ s⁻¹.
